Assay results taken from patent US12637719B2, “Panel of ER regulated genes for use in monitoring endocrine therapy in breast cancer” (Sanofi, priority 2020, dated 2026).
Entries after “also recorded” stand apart in the source; their conditions may differ.

Experiments:
[1] = test system: ERα transcriptional activity in HCC1428-LTED cells; test: ER activity score (GSVA on 87-gene ER signature, RNA-seq) in HCC1428-LTED cells; format: cell-based; conditions: for ER activity score / ERα transcriptional activity (GSVA on ER signature): 300 nM (high) or 30 nM (low), 24 hours, absence of exogenous estrogen, FIG. 1B
Procedure: The term “ER activity score,” as used herein, refers to a score obtained by using a computational method such as GSVA (Hanzelmann et al., GSVA: gene set variation analysis for microarray and RNA-seq data, in BMC Bioinformatics, 2013; 14:7, incorporated herein by reference in its entirety for its description of calculating scores using the GSVA method) on a gene expression data set obtained from a biological sample. An E2-induced score and an E2-suppressed score are calculated individually. […] The ER activity score is computed as follows: ER Activity Score=ER-induced score−E2-suppressed score.
(§1) An RNA-seq library of 96 SERD RNA samples was prepared using a kit from NuGen Ovation® Universal RNA-Seq System Method (Illumina® Platforms) conforming to the manufacturer's protocol. The 50 bp rapid single-read flow cell was used to sequence the library on the Illumina HiSeq 2500 in the rapid mode. […] TPM was calculated as calculated measured as an expression unit and then quantile-normalized and log 2-transformed. […] ER-regulated genes were identified using two comparisons. First, genes were identified that were modulated by one or more SERM or SERD compounds in Table 1 and modulated in the opposite direction by estradiol ([log 2 FC]>2 and FDR<0.05 vs. DMSO control). To identify genes that are differentially expressed between SERD compound treatment and dimethyl sulfoxide (DMSO; control) treatment groups, a two-factor (treatment and dose) analysis of variance (ANOVA) model was used at respective dose and time points. The treatment factor was fixed, with seven levels: six SERD compounds and the DMSO control. The dose factor was also fixed, with two levels: low and high. All samples were treated at 24h. Post hoc contrast analyses were performed at each dose and time level, between each SERD compound treatment and the DMSO control. […] This analysis was performed using Array Studio (Qiagen). The panel of 1022 genes identified as differentially expressed in at least one compound-versus-DMSO comparison were used for hierarchical clustering of compound treatment data normalized to DMSO control at respective dose and time points. Complete-linkage clustering was performed based on Pearson correlation coefficients. Expression profile similarity between compounds was assessed by Pearson correlation on the differentially expressed genes.
(§2) To evaluate the ER modulation by amcenestrant and other SERDs, we treated HCC1428-LTED (long term estrogen deprived) breast cancer cell lines with SERD compounds at either 300 nM (high) or 30 nM (low) in 24 hours. To unmask the ER-intrinsic activity, we then evaluated gene expression after compound treatment in HCC1428-LTED cells, which is a cell line that is hormone-deprived. Changes in global mRNA expression were assessed 24 hours post treatment.
(§3) To assess the relative ER modulating activity of the compounds, a panel of ER regulated genes (87 genes, Table 3) was developed by transcriptional profiling of multiple cell lines to identify genes that were modulated by estradiol and then blocked by SERM and SERD. This panel of ER regulated genes can be used to measure ER modulation by SERMs and SERDs. An ER Activity Score was then assessed using gene set variation analysis (GSVA) on the ER Signature (BMC Bioinformatics. 2013; 14:7).

[2] = test system: HCC1428-LTED cells; test: Global mRNA expression profile similarity between SERDs (1022 differentially expressed genes, Pearson correlation); format: cell-based; conditions: 24 hours post treatment, 1022 transcripts, FIG. 1A, FIG. 3
Procedure: as §1, with “The panel of 1022 genes identified as differentially expressed in at least one compound-versus-DMSO comparison were used for hierarchical clustering of compound treatment data normalized to DMSO control at respective dose and time points. Complete-linkage clustering was performed based on Pearson correlation coefficients.” left out
as §2

[3] = test system: ERα target genes CXCL12 and BCAS1; test: RT-qPCR of ERα target genes CXCL12 and Bcas1 in HCC1428-LTED cells; format: cell-based; conditions: for expression of CXCL12 by RT-qPCR: FIG. 1C; for expression of Bcas1 by RT-qPCR: FIG. 1D
Procedure: RNA was extracted using the RNeasy kit (Qiagen) per the manufacturers instruction, quantified by NanoDrop 8000 (ThermoScientific) and reverse-transcribed with cDNA archive kit (Applied Biosystems). Taqman gene expression assays (Applied Biosystems) were used to quantify PGR (Hs00172183_m1), Bcas 1 (Hs00952822_m1), CXCL12 (Hs03676656_mH), BLNK1(Hs00929914_m1), IL20 (Hs00218888_m1) and the house-keeping genes PGK (Hs00391480_m1) and GAPDH (Hs99999905 ml) The relative quantities were determined using ΔΔ threshold cycle (ΔΔCt), according to the manufacturer's instructions (Applied Biosystems).
as §2
Findings were confirmed by measuring the expression of two well-validated ER target genes, CXCL12 and BCAS1, by RT-qPCR. Gene expression analysis provided further confirmation of the differential response of these molecules on well-validated ERα target genes (Elife. 2016; 5, Endocr Relat Cancer. 2015; 22(5):713-24).

[4] = test system: ERα signaling in HCI013 PDX tumor model; test: ER activity score (GSVA, 87-gene signature) in HCI013 PDX tumor model; format: in vivo, human; conditions: 8 h after last administration; SAR439859 100 mg/kg QD, GDC0810 100 mg/kg QD; FIG. 4B
Procedure: FIGS. 4A-B. Evaluation of target gene modulation in ERα ligands in an endocrine therapy-resistant tumor model. […] Data represent mean and standard deviation for 3 replicates for CXCL12 gene expression. An ER Signature of 87 genes was that were modulated by estradiol and then blocked by SERM and SERD compounds was used to calculate the ER Activity Score and was assessed using gene set variation analysis (GSVA). Data represents the mean and deviation from the mean for each of the described treatments.
as §3
The ERα transcriptional activity was analyzed in the HCI013 model using the panel of genes corresponding to the ER gene signature derived from the in vitro cell line analysis as previously described.

[5] = test system: ERα target genes PGR and CXCL12 in HCI013 tumors; test: RT-qPCR of PGR and CXCL12 in HCI013 PDX tumors; format: in vivo, human
Procedure: FIG. 2. […] For FIG. 2 *P<0.05; denotes significance compared to vehicle treated group at end of study using unpaired t test. FIGS. 4A-B. Evaluation of target gene modulation in ERα ligands in an endocrine therapy-resistant tumor model. […] Data represent mean and standard deviation for 3 replicates for CXCL12 gene expression. An ER Signature of 87 genes was that were modulated by estradiol and then blocked by SERM and SERD compounds was used to calculate the ER Activity Score and was assessed using gene set variation analysis (GSVA). Data represents the mean and deviation from the mean for each of the described treatments. RNA was extracted using the RNeasy kit (Qiagen) per the manufacturers instruction, quantified by NanoDrop 8000 (ThermoScientific) and reverse-transcribed with cDNA archive kit (Applied Biosystems). Taqman gene expression assays (Applied Biosystems) were used to quantify PGR (Hs00172183_m1), Bcas 1 (Hs00952822_m1), CXCL12 (Hs03676656_mH), BLNK1(Hs00929914_m1), IL20 (Hs00218888_m1) and the house-keeping genes PGK (Hs00391480_m1) and GAPDH (Hs99999905 ml) The relative quantities were determined using ΔΔ threshold cycle (ΔΔCt), according to the manufacturer's instructions (Applied Biosystems).

[6] = test system: Ki67; test: IHC Ki67 protein expression (percent positive tumor cells) in paired tumor biopsies, Phase 1/2 study; format: in vivo, human; conditions: screening to Cycle 2, Day 28; 400 mg PO QD; n=7; range −30% to +30%; FIG. 6C
Procedure: Staining was evaluated in tumor cells only. For ER and PgR expression, H-scores were calculated.

[7] = test system: ER pathway; test: ER activation score by GSVA (RNA-seq) in paired tumor biopsies, Phase 1/2 study; format: in vivo, human

Structure (SMILES) | ER activity score / ERα transcriptional activity (GSVA on ER signature) [1] | correlation of induced expression profile to that of fulvestrant [2] | expression of CXCL12 by RT-qPCR [3] | expression of Bcas1 by RT-qPCR [3] | ERα transcriptional activity (ER activity score) in HCI013 model [4] | modulation of ERα intrinsic activity in the absence of E2 (inverse agonist activity) [1] | CXCL12 gene expression in HCI013 tumors (RT-qPCR) ([5]; 8 h after last administration, SAR439859 100 mg/kg QD compared to fulvestrant 200 mg/kg Q2W or GDC0810 100 mg/kg QD, FIG. 4A) | PGR gene expression in HCI013 tumors (RT-qPCR) ([5]; 8 hours after last administration, SAR439859 100 mg/kg compared to fulvestrant 200 mg/kg or GDC0810 100 mg/kg, FIG. 2) | median change from screening in percentage of Ki67 positive cells [6] | ER activation score by GSVA, median change from screening ([7]; all patients with paired biopsies, n=5, range −1.1 to +0.4, FIG. 6D) | ER activation score by GSVA, median change from screening, patients who showed clinical benefit ([7]; patients with clinical benefit, n=4, range −1.1 to 0) | ER activation score by GSVA, change from screening, patient with no clinical benefit ([7]; the one patient with no clinical benefit) | ER activity score / ERα transcriptional activity (GSVA on ER signature) ([1]; listed as fulvestrant)
C[C@@H]1Cc2c([nH]c3ccccc23)[C@@H](c2c(F)cc(/C=C/C(=O)O)cc2F)N1CC(C)(C)F [AZD9496] | only partially reduced; also recorded: only partially inhibited | only weakly correlated | failed to elicit any significant change | failed to elicit any significant change |  |  |  |  |  |  |  |  | 
CC/C(=C(/c1ccc(/C=C/C(=O)O)cc1)c1ccc2[nH]ncc2c1)c1ccc(F)cc1Cl [GDC-0810] | only partially reduced; also recorded: only partially inhibited | only weakly correlated | failed to elicit any significant change | failed to elicit any significant change | suppressive activity |  |  |  |  |  |  |  | 
O=C(O)c1ccc2c(c1)CCCC(c1ccc(Cl)cc1Cl)=C2c1ccc(O[C@H]2CCN(CCCF)C2)cc1 [SAR439859, 6-(2,4-dichlorophenyl)-5-[4-[(3S)-1-(3-fluoropropyl)pyrrolidin-3-yl]oxyphenyl]-8,9-dihydro-7H-benzo[7]annulene-2-carboxylic acid] | strongly reduced; also recorded: deep inhibition | closely correlated | inhibited expression | induced expression | more marked ERα suppression | profound modulation | stronger inhibition | stronger inhibition | −8% | −0.4 | −0.6 | +0.4 | 
C[C@]12CC[C@@H]3c4ccc(O)cc4C[C@@H](CCCCCCCCC[S+]([O-])CCCC(F)(F)C(F)(F)F)[C@H]3[C@@H]1CC[C@@H]2O (stereo partly drawn) [Fulvestrant] | deep inhibition |  |  |  |  | profound modulation |  |  |  |  |  |  | strongly reduced
